Measured values as given in US9487481B2, “Bicyclic compounds” (BRISTOL-MYERS SQUIBB COMPANY, priority 2013, dated 2016).
Where “and” joins values, the source holds several entries; their conditions need not be identical. Identical values can stand only once.

Legend:
[1] = system: circulating lymphocytes; assay: Mouse Blood Lymphocyte Reduction (BLR) Assay; format: in vivo; details: BALB/c mice, oral, 1 mg/kg, 24 hr post-dose
Method: (§1) Lewis rats were dosed orally with vehicle alone (polyethylene glycol 300, “PEG300”) or with 2-amino-2-[2-(4-octylphenyl)ethyl]-1,3-propanediol, hydrochloride (CAS: 162359-56-0) as a solution in the vehicle at doses of 0.1 mg/kg, 0.5 mg/kg and 3.0 mg/kg adjusted to reflect the free amount of test article. The results are provided in Table 4a and the level of lymphocyte reduction at 24 hours post-dose was maximal at 3.0 mg/kg. The percent reduction in lymphocytes is dose-related but the relationship is not linear, with non-proportional increases in dose being required to elicit sequentially greater reductions in lymphocyte counts. […] BALB/c mice were dosed orally with vehicle alone (polyethylene glycol 300, “PEG300”) or with Example 1, Example 2, Compound 6, Compound 8, or Comparative Compound 11. Compounds were dosed as a solution or suspension in the vehicle, adjusted to reflect the free amount of test article in the event that salt forms are utilized. Blood was drawn at 24 hr and blood lymphocyte counts were determined on an ADVIA® 120 Hematology Analyzer (Siemens Healthcare Diagnostics). The results were measured as a reduction in the percentage of circulating lymphocytes as compared to the vehicle treated group at the time of measurement. The results represent the average results of all animals within each treatment group (n=2-4).

[2] = system: mice; assay: Pulmonary Toxicity Assay (BAL protein); format: in vivo; details: oral, 30 mg/kg, 24 hr post-dose; for Relative BAL protein vs. control: >1 = increased pulmonary toxicity
Method: The analysis of protein levels in bronchoalveolar lavage (BAL) fluid obtained from an animal were used to gauge pulmonary side effects. Increased levels of protein in BAL fluid were indicative of undesired pulmonary effects, such as pulmonary edema. Example 1, Example 2, Compound 6, Compound 8, and Compound 11 were administered orally to mice at a dose of 30 mg/kg. At 24 hours post dose, the mice were euthanized with intraperitoneal barbiturate overdose. The animals were placed in a supine position, a skin incision was made and blunt dissection followed to expose the trachea. The trachea was incised and a catheter was inserted 4-6 mm into the trachea. Phosphate-buffered saline (PBS; 1 mL/mouse) was infused into the lungs and then aspirated. The concentration of the BAL protein in the recovered BAL fluid was determined on an ADVIA® 1800 Chemistry Analyzer (Siemens Healthcare Diagnostics). The results represent the average results of all animals within each treatment group (n=2-4).
A value for the relative BAL protein versus control of greater than 1 indicated an increase in pulmonary toxicity compared to the administration of vehicle only. In this study, as reported in Table 5, the administration of Examples 1 and 2 gave relative BAL protein levels of 0.99 and 0.96, indicating no increase in the pulmonary toxicity. The administration of Compound 8 gave a relative BAL protein level of 1.03, which indicated slight or no increase in pulmonary toxicity. In contrast, administration of Compound 6 and Compound 11 gave relative BAL protein levels of 1.94 and 1.33, indicating increased pulmonary toxicity.

[3] = system: Male MRL/lpr mice; assay: MRL/lpr Mouse Model of Spontaneous Lupus Erythematosus Assay; format: in vivo
Method: MRL/lpr mouse model of spontaneous lupus erythematosus assay is an animal model for spontaneous lupus erythematosus.
Male MRL/lpr mice (14 weeks old; Jackson Laboratories; n=12-13) were orally dosed with Example 2 (as a solution in vehicle) or vehicle alone (polyethylene glycol 300) twice a week for 11 weeks starting on day 0. Urine protein levels (by Albustix) were measured on day 0 and throughout the study. […] Additional groups of mice received a daily oral dose of dexamethasone (Dex) either independently or in combination with twice weekly dosing with Example 2. Urine protein levels (by Albustix) were measured on day 0 and throughout the study. […] All procedures involving animals were reviewed and approved by the Institutional Animal Care Use Committee.
Example 2 was tested in the MRL/lpr mouse model of spontaneous lupus erythematosus assay described hereinabove and the results are shown in Table 9.
Example 2 and dexamethasone (Dex) either independently or in combination, were tested in the MRL/lpr mouse model of spontaneous lupus erythematosus assay described hereinabove and the results are shown in Table 10.

[4] = system: CB-17 SCID mice; assay: Mouse T Cell Transfer Induced Colitis Assay; format: in vivo; details: q.o.d. oral; for Inflammation/Damage (Histology), Mean: 6 wk
Method: The mouse T Cell transfer induced colitis assay is an animal model for human colitis.
Colitis was induced in CB-17 SCID mice by the adoptive transfer of FACS sorted CD4^+CD45RB^high T cells from BALB/c mice (3×10^5/mouse, i.p.). Disease activities were monitored once a week for the initial 3 weeks and 3×/week for the subsequent weeks on the basis of body weight, soft stool or diarrhea, and anorectal prolapse. Animals were dosed orally every other day (q.o.d.) with the test article or vehicle starting from the day of T cell transfer. Mice were sacrificed 6 wk after T cell reconstitution and analyzed for bowel inflammation based on histological examination of H&E stained colon tissues. All procedures involving animals were reviewed and approved by the Institutional Animal Care Use Committee.
Example 2 was tested in the mouse T cell transfer induced colitis model described hereinabove and the results are shown in Table 8.

[5] = system: Male Lewis rats; assay: Rat Adjuvant Induced Arthritis Assay (AA); format: in vivo; details: prophylactic
Method: The rat adjuvant-induced arthritis model is an animal model for human rheumatoid arthritis.
Male Lewis rats (150-175 g; Harlan, n=8 treatment group) were immunized at the base of the tail with 100 μl of 10 mg/ml freshly ground Mycobacterium butyricum (Difco Laboratories) in incomplete Freund's adjuvant (sigma). Animals were dosed once daily with the test article (as a solution or suspension in the vehicle) or vehicle alone (polyethylene glycol 300, “PEG300”) starting from the day of immunization. The volumes of their hind paws were measured in a water displacement plethysmometer (Ugo Basile, Italy). The baseline paw measurements were taken before onset of the disease (between day 7 to day 10). The paw measurements were then taken three times a week until the end of the study on day 20 to 21. All procedures involving animals were reviewed and approved by the Institutional Animal Care Use Committee.
Example 2 of the present invention was tested in the Rat Adjuvant Induced Arthritis assay described hereinabove and the results are shown in Table 7.

[6] = system: circulating lymphocytes; assay: Rat Blood Lymphocyte Reduction (BLR) Assay; format: in vivo; details: Lewis rats, oral, 24 hr post-dose; for Percent reduction vs. control (rat blood lymphocytes): hydrochloride
Method: as §1

[7] = target: T1, GFP-tagged S1P1 receptor (Homo sapiens, UniProt P21453); assay: S1P1 Receptor Internalization Assay; format: cell-based; details: CHO-K1 cells expressing GFP-tagged S1P1, 45 min
T1 construct: expressed in transfected cells; host or cells: CHO-K1 cells
T1 sequence (P21453 whole entry): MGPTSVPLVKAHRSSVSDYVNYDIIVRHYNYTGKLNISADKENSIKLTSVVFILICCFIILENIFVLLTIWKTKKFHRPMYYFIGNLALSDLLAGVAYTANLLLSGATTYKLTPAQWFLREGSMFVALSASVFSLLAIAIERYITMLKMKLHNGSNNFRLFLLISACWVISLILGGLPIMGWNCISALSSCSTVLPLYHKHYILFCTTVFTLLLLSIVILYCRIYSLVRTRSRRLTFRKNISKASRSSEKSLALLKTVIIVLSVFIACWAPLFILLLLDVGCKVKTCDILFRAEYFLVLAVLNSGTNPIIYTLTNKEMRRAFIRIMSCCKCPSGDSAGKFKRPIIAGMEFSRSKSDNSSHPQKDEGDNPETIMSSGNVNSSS
Method: CHO-K1 cells expressing a GFP-tagged S1P1 receptor were plated in 384-well poly-D-lysine coated tissue culture plates at 4×10^3 cells/well in 50 μl assay media (F12 with L-glutamine, 10% charcoal/dextran-treated FBS, 1× penicillin-streptomycin, 1M HEPES). Cell plates were incubated overnight at 37° C./5% CO2. Test compound were introduced to the cell plate from a compound source plate at 11 point, 3 fold serial dilutions and then the assay plates were incubated at 37° C./5% CO2 for 45 min. Cells were fixed and stained with 6% formaldehyde and 15 μg/ml Hoechst dye in PBS (Ca^2+/Mg^2+ free) at room temperature for 15 minutes. Cell plates were washed 4 times with PBS (Ca^2+/Mg^2+ free) with addition of 50 μl/PBS prior to plate sealing. Images were acquired by the Cellomics ARRAYSCAN® VTI high content imager. Data analysis for EC50 determination relative to internal control compound was accomplished using the Compartmental Analysis BioApplication on the Array Scan. The EC50 is defined as the agonist concentration that corresponds to 50% of the Ymax (maximal response) obtained for each individual compound tested and was quantified using the 4 parameter logistic equation to fit the data.

[8] = target: T2, S1P1 (Homo sapiens, UniProt P21453); assay: Receptor [35S] GTPγS Binding Assay, S1P1/CHO cell membranes; format: biochemical; details: membranes prepared from S1P1/CHO cells
T2 sequence (P21453 whole entry): as above
Method: (§2) Compounds were loaded in a 384 FALCON® v-bottom plate (0.5 μl/well in a 11 point, 3-fold dilution). Membranes prepared from S1P1/CHO cells or EDG3-Ga15-bla HEK293T cells (EDG3 equivalent S1P3) were added to the compound plate (40 μl/well, final protein 3 μg/well) with MULTIDROP®. [^35S]GTP (1250 Ci/mmol, Perkin Elmer) was diluted in assay buffer: 20 mM HEPES, pH7.5, 10 mM MgCl2, 150 mM NaCl, 1 mM EGTA (ethylene glycol tetraacetic acid), 1 mM DTT (Dithiothreitol), 10 μM GDP, 0.1% fatty acid free BSA, and 10 μg/ml Saponin to 0.4 nM. 40 μl of the [^35S] GTP solution was added to the compound plate with a final concentration of 0.2 nM. The reaction was kept at room temperature for 45 min. At the end of incubation, all the mixtures in the compound plate were transferred to Millipore 384-well FB filter plates via the VELOCITY11® Vprep liquid handler. The filter plate was washed with water 4 times by using the manifold Embla plate washer and dried at 60° C. for 45 min. MicroScint 20 scintillation fluid (30 μl) was added to each well for counting on the Packard TOPCOUNT®. EC50 is defined as the agonist concentration that corresponds to 50% of the Ymax (maximal response) obtained for each individual compound tested.
(§3) A larger value for the GTPγS S1P3 EC50 value indicated less activity in the GTPγS S1P3 binding assay.

[9] = target: T2, S1P1; assay: S1P1 Binding Assay (33P-S1P ligand, CHO membranes); details: membranes from CHO cells expressing human S1P1, 0.03 nM 33P-S1P
Method: Membranes were prepared from CHO cells expressing human S1P1. Cells pellets (1×10^9 cells/pellet) were suspended in buffer containing 20 mM HEPES (4-(2-hydroxyethyl)-1-piperazineethanesulfonic acid), pH 7.5, 50 mM NaCl, 2 mM EDTA (Ethylenediaminetetraacetic acid) and Protease Inhibitor cocktail (Roche), and disrupted on ice using the Polytron homogenizer. The homogenate was centrifuged at 20,000 rpm (48,000 g) and the supernatant was discarded. The membrane pellets were resuspended in buffer containing 50 mM HEPES, pH 7.5, 100 mM NaCl, 1 mM MgCl2, 2 mM EDTA and stored in aliquots at −80° C. after protein concentration determination.
Membranes (2 μg/well) and 0.03 nM final concentration of ^33P-S1P ligand (1 mCi/ml, Perkin Elmer or American Radiolabeled Chemicals) diluted in assay buffer (50 mM HEPES, pH7.4, 5 mM MgCl2, 1 mM CaCl2, 0.5% fatty acid free BSA (bovine serum albumin), 1 mM NaF) were added to the compound plates (384 FALCON® v-bottom plate (0.5 μl/well in a 11 point, 3-fold dilution). Binding was performed for 45 minutes at room temperature, terminated by collecting the membranes onto 384-well Millipore FB filter plates, and radioactivity was measured by TOPCOUNT®. The competition data of the test compounds over a range of concentrations was plotted as percentage inhibition of radioligand specific binding. […]

[10] = target: EDG3 equivalent S1P3 (Homo sapiens, UniProt Q99500); assay: Receptor [35S] GTPγS Binding Assay, EDG3-Ga15-bla HEK293T cell membranes; format: biochemical; details: membranes prepared from EDG3-Ga15-bla HEK293T cells
EDG3 equivalent S1P3, sequence (Q99500 whole entry): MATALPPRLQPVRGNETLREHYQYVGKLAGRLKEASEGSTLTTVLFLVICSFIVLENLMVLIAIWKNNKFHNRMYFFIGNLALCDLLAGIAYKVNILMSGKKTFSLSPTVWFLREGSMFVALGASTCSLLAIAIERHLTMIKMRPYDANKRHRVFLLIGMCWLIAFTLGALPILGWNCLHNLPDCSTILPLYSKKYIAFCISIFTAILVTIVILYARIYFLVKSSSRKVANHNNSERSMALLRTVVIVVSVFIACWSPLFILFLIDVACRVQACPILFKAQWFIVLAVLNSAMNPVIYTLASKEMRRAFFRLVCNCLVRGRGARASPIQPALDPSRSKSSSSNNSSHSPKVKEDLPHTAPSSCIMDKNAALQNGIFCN
Method: as §2, §3

Q: What does the source list for `CCCCCC[C@@H]1CCc2cc([C@@H]3CC[C@](N)(CO)C3)ccc2C1` (single isomer, unassigned) [Example 1]?
A: Mouse blood lymphocytes, Compound Mean [1]: 0.7; Percent reduction vs. control (mouse blood lymphocytes) [1]: 88%; Mouse BAL protein level, Compound Mean [2]: 8.25 mg/dL; Relative BAL protein vs. control [2]: 0.99

Q: How did the “Mouse blood lymphocytes, Compound Mean” value [1] turn out when `CCCCCC[C@@H]1CCc2cc([C@H]3CC[C@](N)(CO)C3)ccc2C1` (single isomer, unassigned) [Example 2] was run?
A: The value was 0.54.

Q: What about the “Percent reduction vs. control (mouse blood lymphocytes)” value [1] of the same compound?
A: The value was 90%.

Q: What about the “% Mice with Proteinurea > 100 mg/dL” value ([3]; 24 weeks of age, 2 mg/kg, 2x week oral) of the same compound?
A: Its value is 20%.

Q: And the “% Mice with Proteinurea > 100 mg/dL” value ([3]; 25 weeks of age, 0.05 mg/kg, 2x week oral)?
A: Its value is 25%.

Q: And the “% Mice with Proteinurea > 100 mg/dL” value ([3]; 25 weeks of age, 0.4 mg/kg, 2x week oral)?
A: The value was 17%.

Q: And the “% Mice with Proteinurea > 100 mg/dL” value ([3]; 25 weeks of age, 2 mg/kg, 2x week oral)?
A: Its value is 10%.

Q: And the “Mouse BAL protein level, Compound Mean” value [2]?
A: Its value is 8.0 mg/dL.

Q: And the “Relative BAL protein vs. control” value [2]?
A: Its value is 0.96.

Q: And the “Week 6 Percent Body Weight Changes, Mean (from 100%)” value ([4]; 1 mg/kg)?
A: The value was 100% → 98.7%.

Q: And the “Inflammation/Damage (Histology), Mean” value ([4]; 1 mg/kg)?
A: The value was 5.46.

Q: And the “Week 6 Percent Body Weight Changes, Mean (from 100%)” value ([4]; 5 mg/kg)?
A: Its value is 100% → 103.7%.

Q: And the “Inflammation/Damage (Histology), Mean” value ([4]; 5 mg/kg)?
A: The value was 3.71.

Q: And the “Paw Swelling on Day 20, Mean” value ([5]; 0.15 mg/kg once daily oral)?
A: Its value is 1.64 mL.

Q: And the “Paw Swelling on Day 20, Mean” value ([5]; 0.5 mg/kg once daily oral)?
A: The value was 0.70 mL.

Q: What about the “Paw Swelling on Day 20, Mean” value ([5]; 1.5 mg/kg once daily oral) of the same compound?
A: Its value is 0.16 mL.

Q: How did the “Rat blood lymphocytes, Compound Mean” value ([6]; 0.1 mg/kg) turn out when `CCCCCCCCc1ccc(CCC(N)(CO)CO)cc1.Cl` [2-amino-2-[2-(4-octylphenyl)ethyl]-1,3-propanediol, hydrochloride] was run?
A: Its value is 2.78.

Q: What about the “Percent reduction vs. control (rat blood lymphocytes)” value ([6]; 0.1 mg/kg) of the same compound?
A: Its value is 69%.

Q: What about the “Rat blood lymphocytes, Compound Mean” value ([6]; 0.5 mg/kg) of the same compound?
A: Its value is 1.64.

Q: What about the “Percent reduction vs. control (rat blood lymphocytes)” value ([6]; 0.5 mg/kg) of the same compound?
A: Its value is 82%.

Q: And the “Rat blood lymphocytes, Compound Mean” value ([6]; 3.0 mg/kg)?
A: The value was 1.02.

Q: And the “Percent reduction vs. control (rat blood lymphocytes)” value ([6]; 3.0 mg/kg)?
A: Its value is 89%.

Q: Which results are given for `CCCCCOc1ccc2cc([C@@H]3CC[C@](N)(CO)C3)ccc2c1` [Comparative Compound 11, reference compound]?
A: Mouse blood lymphocytes, Compound Mean [1]: 2.18; Percent reduction vs. control (mouse blood lymphocytes) [1]: 52%; Mouse BAL protein level, Compound Mean [2]: 13.3 mg/dL; Relative BAL protein vs. control [2]: 1.33

Q: With `CCCCCC[C@H]1CCc2cc([C@@H]3CC[C@](N)(CO)C3)ccc2C1` [Compound 6, ((1R,3R)-1-amino-3-((S)-6-hexyl-5,6,7,8-tetrahydronaphthalen-2-yl)cyclopentyl)methanol] as the compound, how does the “Mouse blood lymphocytes, Compound Mean” value [1] read?
A: Its value is 1.2.

Q: What about the “Percent reduction vs. control (mouse blood lymphocytes)” value [1] of the same compound?
A: Its value is 78%.

Q: What about the “Mouse BAL protein level, Compound Mean” value [2] of the same compound?
A: Its value is 14.3 mg/dL.

Q: What about the “Relative BAL protein vs. control” value [2] of the same compound?
A: Its value is 1.94 and 1.96.

Q: Which results are given for `CCCCCC[C@H]1CCc2cc([C@H]3CC[C@](N)(CO)C3)ccc2C1` [Compound 8, ((1R,3S)-1-amino-3-((S)-6-hexyl-5,6,7,8-tetrahydronaphthalen-2-yl)cyclopentyl)methanol]?
A: Mouse blood lymphocytes, Compound Mean [1]: 2.4; Percent reduction vs. control (mouse blood lymphocytes) [1]: 59%; Mouse BAL protein level, Compound Mean [2]: 7.5 mg/dL; Relative BAL protein vs. control [2]: 1.03

Q: How did the “% Mice with Proteinurea > 100 mg/dL” value ([3]; 24 weeks of age, 0.1 mg/kg q.d. oral) turn out when `C[C@@H]1C[C@H]2[C@@H]3CCC4=CC(=O)C=C[C@]4(C)[C@@]3(F)[C@@H](O)C[C@]2(C)[C@@]1(O)C(=O)CO` [Dex, dexamethasone, reference compound] was run?
A: Its value is 50%.

Q: And the “% Mice with Proteinurea > 100 mg/dL” value ([3]; 24 weeks of age, 0.5 mg/kg q.d. oral)?
A: The value was 10%.

Q: How did the EC50 [7] turn out when `CCCCCC[C@@H]1CCc2cc([C@@H]3CC[C@](N)(COP(=O)(O)O)C3)ccc2C1` [Example 9, ((1R,3R)-1-Amino-3-((R)-6-hexyl-5,6,7,8-tetrahydronaphthalen-2-yl)cyclopentyl)methyl dihydrogen phosphate] was run?
A: Its EC50 is 361 nM.

Q: `CCCCCC[C@@H]1CCc2cc([C@H]3CC[C@](N)(COP(=O)(O)O)C3)ccc2C1` [Example 10, (1R,3 S)-1-Amino-3-((R)-6-hexyl-5,6,7,8-tetrahydronaphthalen-2-yl) cyclopentyl)methyl dihydrogen phosphate] was tested. Which EC50 [8] did it give?
A: Its EC50 is 0.9 nM.

Q: And the IC50 [9]?
A: Its IC50 is 0.01 nM.

Q: What about the EC50 [10] of the same compound?
A: The EC50 was greater than 62500 nM.
